Laboratory results from patent US4973578A, “Synthetic peptides derived from the alpha-subunit of human lycoprotein hormones” (Mayo Foundation for Medical Education and Research, priority 1988, dated 1990).
Residues, ends and D or L forms follow the SMILES beside them.

Target: T1, TSH receptor on human thyroid membranes (Homo sapiens, UniProt P16473)
T1 construct: Thyroid tissue obtained at surgery from patients with Graves' disease was prepared as described by Takahashi et al; from tissue; host or cells: human thyroid tissue from Graves' disease patients, 2000xg membrane fraction
Experiment: TSH radioreceptor assay: inhibition of 125I-bTSH binding to human thyroid membrane preparations
Settings: for IC50: read-out: bTSH ED50 (effective dose necessary to inhibit binding of 125I-bTSH by 50%)
Procedure: Thyroid tissue obtained at surgery from patients with Graves' disease was prepared as described by Takahashi et al., J. Clin. Endocrinol. Metab. 47:870 (1978), the disclosure of which is incorporated herein. Briefly, the tissue was dissected free of fibrous material, minced with scissors, and homogenized with Polytron homogenizer. The 2000×g fraction was collected by centrifugation, washed and resuspended in 40 mM Tris, 0.1% Bovine Serum Albumin (BSA) pH 7.4 at a concentration of 100 mg equivalents of wet tissue per milliliter. The preparation was stored at -70° C. until used for assay.
Highly purified bovine TSH (30 IU/mg, supplied by Dr. J. G. Pierce, UCLA) was radio-iodinated (Na^125 I, Amersham, Chicago) by a gentle lactoperoxidase procedure described by Takahashi et al., supra, then purified by Sephadex G-100 chromatography.
The membrane assay incubation mixture consisted of […] of the 2000×g membrane fraction, 0.125 ng ^125 I bTSH (approximately 20,000 cpm, 5×10^-12 M), 100 ul of 1% Triton X-100 and noted amounts of test materials in a final volume of 0.5 ml of 40 mM Tris-HCl pH 7.4 plus 0.1% BSA. Nonspecific binding was determined by addition of excess unlabeled bTSH (200 mU/ml, Sigma, St. Louis). After 2 hrs incubation at 25° C., 200 ul of 5 mg/ml bovine gamma globulin and 1 ml 30% polyethylene glycol 6000 (Baker, Phillipsburg, N.J.) in 1M NaCl was added to each tube and the tubes centrifuged at 4000 rpm for 25 minutes. The supernatants were aspirated and pellets counted in a gamma counter. Specific binding averaged 25% of total counts.
FIG. 1 reports 5×10^-12 M labeled bTSH incubated with 10 mg equivalents (wet weight) of 2000×g fraction of thyroid membranes with varying concentrations of unlabeled TSH or synthetic α-subunit peptides. Nonspecific binding was determined in the presence of excess unlabeled TSH.

[1] = human thyroid membrane homogenates, ± S.E.

T1 sequence (P16473 21-764): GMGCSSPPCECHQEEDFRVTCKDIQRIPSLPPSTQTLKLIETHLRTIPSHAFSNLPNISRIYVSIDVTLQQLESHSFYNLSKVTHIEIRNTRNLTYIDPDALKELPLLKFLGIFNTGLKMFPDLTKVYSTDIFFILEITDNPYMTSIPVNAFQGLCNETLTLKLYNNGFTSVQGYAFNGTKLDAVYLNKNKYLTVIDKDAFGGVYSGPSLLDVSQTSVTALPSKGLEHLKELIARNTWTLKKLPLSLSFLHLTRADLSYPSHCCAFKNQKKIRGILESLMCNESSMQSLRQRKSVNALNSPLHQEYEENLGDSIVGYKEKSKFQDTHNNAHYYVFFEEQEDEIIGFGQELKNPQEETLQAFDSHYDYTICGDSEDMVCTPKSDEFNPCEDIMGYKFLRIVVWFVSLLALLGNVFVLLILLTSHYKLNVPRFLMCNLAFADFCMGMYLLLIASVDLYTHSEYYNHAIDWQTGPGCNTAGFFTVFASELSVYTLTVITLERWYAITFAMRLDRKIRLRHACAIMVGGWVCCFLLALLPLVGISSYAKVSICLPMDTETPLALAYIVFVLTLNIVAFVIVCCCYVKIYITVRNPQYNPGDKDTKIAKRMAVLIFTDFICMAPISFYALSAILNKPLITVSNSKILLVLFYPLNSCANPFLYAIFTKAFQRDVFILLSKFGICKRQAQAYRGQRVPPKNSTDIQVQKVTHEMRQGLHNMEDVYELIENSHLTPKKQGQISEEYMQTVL

Row | bTSH ED50 (effective dose necessary to inhibit binding of 125I-bTSH by 50%) [1] | Compound | IC50 [1] | displacement of 125I-bTSH label (at concentrations greater than 1×10^-5 m, FIG. 1)
1 |  | CC(C)C[C@H](NC(=O)[C@@H](NC(=O)[C@H](CS)NC(=O)[C@H](CCC(=O)O)NC(=O)[C@@H]1CCCN1C(=O)[C@H](CS)NC(=O)[C@H](CC(=O)O)NC(=O)[C@H](CCC(N)=O)NC(=O)[C@@H](NC(=O)[C@H](CC(=O)O)NC(=O)[C@@H]1CCCN1C(=O)[C@H](C)N)C(C)C)[C@@H](C)O)C(=O)N[C@@H](CCC(N)=O)C(=O)N[C@@H](CCC(=O)O)C(=O)N[C@@H](CC(N)=O)C(N)=O [α1-15, Ala--Pro--Asp--Val--Gln--Asp--Cys--Pro--Glu--Cys--Thr--Leu--Gln--Glu--Asn] (H-APDVQDCPECTLQEN-NH2) | > 700 µM | 
2 | no activity | CC[C@H](C)[C@H](NC(=O)[C@@H]1CCCN1C(=O)[C@H](C)NC(=O)CNC(=O)[C@@H]1CCCN1C(=O)[C@H](CCC(N)=O)NC(=O)[C@H](CO)NC(=O)[C@H](Cc1ccccc1)NC(=O)[C@H](Cc1ccccc1)NC(=O)[C@@H]1CCCN1C(=O)[C@H](CC(N)=O)NC(=O)[C@H](CCC(=O)O)NC(=O)[C@H](CCC(N)=O)NC(=O)[C@H](CC(C)C)NC(=O)[C@@H](N)[C@@H](C)O)C(N)=O [α11-25, Thr--Leu--Gln--Glu--Asn--Pro--Phe--Phe--Ser--Gln--Pro--Gly--Ala--Pro--Ile] (H-TLQENPFFSQPGAPI-NH2) |  | 
3 |  | CC(C)C[C@H](NC(=O)[C@@H]1CCCN1C(=O)[C@@H](NC(=O)[C@@H]1CCCN1C(=O)[C@H](Cc1ccc(O)cc1)NC(=O)[C@H](C)NC(=O)[C@H](CCCNC(=N)N)NC(=O)[C@H](CO)NC(=O)[C@H](Cc1ccccc1)NC(=O)[C@H](CS)NC(=O)[C@@H](N)CS)[C@@H](C)O)C(=O)N[C@@H](CCCNC(=N)N)C(=O)N[C@@H](CO)C(=O)N[C@@H](CCCCN)C(=O)N[C@@H](CCCCN)C(N)=O [α31-45, Cys--Cys--Phe--Ser--Arg--Ala--Tyr--Pro--Thr--Pro--Leu--Arg--Ser--Lys--Lys] (H-CCFSRAYPTPLRSKK-NH2) | 31.2 ± 3.8 µM | more than 80%
4 |  | CSCC[C@H](NC(=O)[C@@H](NC(=O)[C@H](CCCCN)NC(=O)[C@H](CCCCN)NC(=O)[C@H](CO)NC(=O)[C@H](CCCNC(=N)N)NC(=O)[C@@H](N)CC(C)C)[C@@H](C)O)C(=O)N[C@@H](CC(C)C)C(=O)N[C@H](C(=O)N[C@@H](CCC(N)=O)C(=O)N[C@@H](CCCCN)C(=O)N[C@@H](CC(N)=O)C(=O)N[C@H](C(=O)N[C@H](C(=O)N[C@@H](CO)C(N)=O)[C@@H](C)O)C(C)C)C(C)C [α41-55, Leu--Arg--Ser--Lys--Lys--Thr--Met--Leu--Val--Gln Lys--Asn--Val--Thr--Ser] (H-LRSKKTMLVQKNVTS-NH2) | 171 ± 28.3 µM | 
5 |  | CC(C)[C@H](NC(=O)[C@H](CS)NC(=O)[C@H](CS)NC(=O)[C@@H](NC(=O)[C@H](CO)NC(=O)[C@H](CCC(=O)O)NC(=O)[C@H](CO)NC(=O)[C@@H](NC(=O)[C@@H](NC(=O)[C@H](CC(N)=O)NC(=O)[C@@H](N)CCCCN)C(C)C)[C@@H](C)O)[C@@H](C)O)C(=O)N[C@@H](C)C(=O)N[C@@H](CCCCN)C(=O)N[C@@H](CO)C(=O)N[C@@H](Cc1ccc(O)cc1)C(N)=O [α51-65, Lys--Asn--Val--Thr--Ser--Glu--Ser--Thr--Cys--Cys--Val--Ala--Lys--Ser--Tyr] (H-KNVTSESTCCVAKSY-NH2) | 237 ± 9.5 µM | 
6 |  | CSCC[C@H](NC(=O)[C@@H](NC(=O)[C@@H](NC(=O)[C@@H](NC(=O)[C@H](CCCNC(=N)N)NC(=O)[C@H](CC(N)=O)NC(=O)[C@H](Cc1ccc(O)cc1)NC(=O)[C@H](CO)NC(=O)[C@H](CCCCN)NC(=O)[C@H](C)NC(=O)[C@@H](N)C(C)C)C(C)C)[C@@H](C)O)C(C)C)C(=O)NCC(=O)NCC(=O)N[C@@H](Cc1ccccc1)C(=O)N[C@@H](CCCCN)C(N)=O [α61-75, Val--Ala--Lys--Ser--Tyr--Asn--Arg--Val--Thr--Val--Met--Gly--Gly--Phe--Lys] (H-VAKSYNRVTVMGGFK-NH2) | > 700 µM | 
7 |  | CSCC[C@H](N)C(=O)NCC(=O)NCC(=O)N[C@@H](Cc1ccccc1)C(=O)N[C@@H](CCCCN)C(=O)N[C@H](C(=O)N[C@@H](CCC(=O)O)C(=O)N[C@@H](CC(N)=O)C(=O)N[C@@H](Cc1c[nH]cn1)C(=O)N[C@H](C(=O)N[C@@H](C)C(=O)N[C@@H](CS)C(=O)N[C@@H](Cc1c[nH]cn1)C(=O)N[C@@H](CS)C(=O)N[C@@H](CO)C(N)=O)[C@@H](C)O)C(C)C [α71-85, Met--Gly--Gly--Phe--Lys--Val--Glu--Asn--His--Thr--Ala--Cys--His--Cys--Ser] (H-MGGFKVENHTACHCS-NH2) | > 700 µM | 
